Consider 32 compounds from US11066396B2 (priority 2016, dated 2021).

As usually defined, the IC50 is the concentration needed to halve the response being measured.

The target in one assay is HDAC8 (Homo sapiens (Human), UniProt Q9BY41). The note with it: read-out: HDAC8 IC50.
A further assay concerns the target HDAC1 (Homo sapiens (Human), UniProt Q13547). To be noted: read-out: HDAC1 IC50.

Chain of HDAC1 (Q13547 whole entry): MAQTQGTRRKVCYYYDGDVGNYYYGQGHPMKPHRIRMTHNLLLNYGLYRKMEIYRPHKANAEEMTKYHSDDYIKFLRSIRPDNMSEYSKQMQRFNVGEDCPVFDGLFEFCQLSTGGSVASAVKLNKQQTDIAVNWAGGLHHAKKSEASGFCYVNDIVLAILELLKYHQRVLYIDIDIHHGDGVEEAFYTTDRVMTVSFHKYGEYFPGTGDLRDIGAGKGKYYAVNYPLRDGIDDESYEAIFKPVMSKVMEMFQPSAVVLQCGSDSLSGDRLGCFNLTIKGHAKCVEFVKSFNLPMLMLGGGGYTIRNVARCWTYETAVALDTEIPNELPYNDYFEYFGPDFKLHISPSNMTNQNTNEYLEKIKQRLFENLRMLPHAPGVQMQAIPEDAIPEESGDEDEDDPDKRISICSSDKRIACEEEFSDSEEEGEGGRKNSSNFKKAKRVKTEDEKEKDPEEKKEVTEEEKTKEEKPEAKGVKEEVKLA
Chain of HDAC8 (Q9BY41 whole entry): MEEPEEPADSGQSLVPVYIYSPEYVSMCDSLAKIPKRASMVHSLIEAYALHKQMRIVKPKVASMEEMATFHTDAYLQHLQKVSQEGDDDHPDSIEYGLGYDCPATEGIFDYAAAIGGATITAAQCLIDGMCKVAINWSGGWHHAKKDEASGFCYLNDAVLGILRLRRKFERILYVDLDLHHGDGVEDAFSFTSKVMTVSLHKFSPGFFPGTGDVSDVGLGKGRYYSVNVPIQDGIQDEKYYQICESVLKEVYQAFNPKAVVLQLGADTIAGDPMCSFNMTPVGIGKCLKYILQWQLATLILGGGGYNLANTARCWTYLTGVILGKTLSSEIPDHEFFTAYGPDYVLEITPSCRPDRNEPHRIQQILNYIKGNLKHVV

As for `O=C1CCC(c2ccccc2Cl)N1c1ccc(-c2noc(C(F)(F)F)n2)c(F)c1` (racemic) [Example 37, 5-(2-chlorophenyl)-1-(3-fluoro-4-(5-(trifluoromethyl)-1,2,4-oxadiazol-3-yl)phenyl)pyrrolidin-2-one], the IC50 at HDAC8 is 10000 nM; at HDAC1 it was 16000 nM. With `Cc1noc(C2CCCC(=O)N2c2ccc(-c3noc(C(F)(F)F)n3)cc2)n1` (racemic) [Example 48, 6-(3-methyl-1,2,4-oxadiazol-5-yl)-1-(4-(5-(trifluoromethyl)-1,2,4-oxadiazol-3-yl)phenyl)piperidin-2-one], the results for the IC50 on HDAC8 and on HDAC1 were 1800 nM and 2200 nM, respectively.

As for `O=C(C1CCS(=O)(=O)C1)N(Cc1ccc(-c2noc(C(F)(F)F)n2)cn1)c1cccc(F)c1` (racemic) [Example 54, N-(3-fluorophenyl)-N-((5-(5-(trifluoromethyl)-1,2,4-oxadiazol-3-yl)pyridin-2-yl)methyl)tetrahydrothiophene-3-carboxamide 1,1-dioxide], the half-inhibitory concentration (IC50) at HDAC8 was 2600 nM; at HDAC1, 270 nM. On to `CCN1CCCC(C(=O)N(Cc2ccc(-c3noc(C(F)(F)F)n3)cn2)c2cccc(F)c2)C1` (racemic) [Example 57, 1-ethyl-N-(3-fluorophenyl)-N-((5-(5-(trifluoromethyl)-1,2,4-oxadiazol-3-yl)pyridin-2-yl)methyl)piperidine-3-carboxamide], for which the IC50 on HDAC8 is 2000 nM; on HDAC1, 240 nM.

As to `CC(C)N1CCCC(C(=O)N(Cc2ccc(-c3noc(C(F)(F)F)n3)cn2)c2cccc(F)c2)C1` (racemic) [Example 61, N-(3-fluorophenyl)-1-isopropyl-N-((5-(5-(trifluoromethyl)-1,2,4-oxadiazol-3-yl)pyridin-2-yl)methyl)piperidine-3-carboxamide], the IC50 at HDAC8 is 2000 nM; on HDAC1 it was 260 nM.

For the compound `CC1(C)CC(C(=O)N(Cc2ccc(-c3noc(C(F)(F)F)n3)cn2)c2cccc(F)c2)CCO1` (racemic) [Example 63, N-(3-fluorophenyl)-2,2-dimethyl-N-((5-(5-(trifluoromethyl)-1,2,4-oxadiazol-3-yl)pyridin-2-yl)methyl)tetrahydro-2H-pyran-4-carboxamide], the IC50 at HDAC8 is 1500 nM; on HDAC1, 260 nM. Consider `Cc1cn(C(C)C(=O)N(Cc2ccc(-c3noc(C(F)(F)F)n3)cn2)c2cccc(F)c2)nn1` (racemic) [Example 64, N-(3-fluorophenyl)-2-(4-methyl-1H-1,2,3-triazol-1-yl)-N-((5-(5-(trifluoromethyl)-1,2,4-oxadiazol-3-yl)pyridin-2-yl)methyl)propanamide], for which the IC50 at HDAC8 turned out to be 2800 nM; on HDAC1, 200 nM. Take `CC(C(=O)N(Cc1ccc(-c2noc(C(F)(F)F)n2)cc1)c1cccc(C(F)(F)F)c1)n1cncn1` (racemic) [Example 66, 2-(1H-1,2,4-triazol-1-yl)-N-(4-(5-(trifluoromethyl)-1,2,4-oxadiazol-3-yl)benzyl)-N-(3-(trifluoromethyl)phenyl)propanamide]: the IC50 at HDAC8 was 1900 nM; at HDAC1, 720 nM. Consider `O=C1NCCN(c2ccc(-c3noc(C(F)(F)F)n3)cn2)C1c1cccc(F)c1` (racemic) [Example 132, 3-(3-fluorophenyl)-4-(5-(5-(trifluoromethyl)-1,2,4-oxadiazol-3-yl)pyridin-2-yl)piperazin-2-one], for which, at HDAC8, the IC50 is 630 nM. For the compound `FC(F)(F)c1cccc(C2COCCN2c2ccc(-c3noc(C(F)(F)F)n3)cn2)c1` (racemic) [Example 146, 4-(5-(5-(trifluoromethyl)-1,2,4-oxadiazol-3-yl)pyridin-2-yl)-3-(3-(trifluoromethyl)phenyl)morpholine], the IC50 at HDAC8 was determined as 20000 nM. Turning to `FC(F)(F)c1nc(-c2ccc(N3CCCCC3c3ccccn3)nc2)no1` (racemic) [Example 147, 3-(6-(2-(pyridin-2-yl)piperidin-1-yl)pyridin-3-yl)-5-(trifluoromethyl)-1,2,4-oxadiazole], on HDAC8, the IC50 was determined as 3200 nM. Same read-out and setting: with `FC(F)(F)c1nc(-c2ccc(N3CCCC3c3ccncc3)nc2)no1` (racemic) [Example 150, 3-(6-(2-(pyridin-4-yl)pyrrolidin-1-yl)pyridin-3-yl)-5-(trifluoromethyl)-1,2,4-oxadiazole] the figure was 1800 nM; with `FC(F)(F)c1nc(-c2ccc(N3CCCC3c3cccnc3)nc2)no1` (racemic) [Example 151, 3-(6-(2-(pyridin-3-yl)pyrrolidin-1-yl)pyridin-3-yl)-5-(trifluoromethyl)-1,2,4-oxadiazole], 1600 nM; with `OCC1CC(c2ccccc2)N(c2ccc(-c3noc(C(F)(F)F)n3)cn2)C1` (racemic) [Example 152, (5-phenyl-1-(5-(5-(trifluoromethyl)-1,2,4-oxadiazol-3-yl)pyridin-2-yl)pyrrolidin-3-yl)methanol], 840 nM. In the case of `FC(F)(F)c1nc(-c2ccc(N3CCCC3c3ccccn3)nc2)no1` (racemic) [Example 154, 3-(6-(2-(pyridin-2-yl)pyrrolidin-1-yl)pyridin-3-yl)-5-(trifluoromethyl)-1,2,4-oxadiazole], the IC50 at HDAC8 was found to be 3400 nM.

Consider `Cc1nonc1C1CCCN1c1ccc(-c2noc(C(F)(F)F)n2)cn1` (racemic) [Example 155, 3-(6-(2-(4-methyl-1,2,5-oxadiazol-3-yl)pyrrolidin-1-yl)pyridin-3-yl)-5-(trifluoromethyl)-1,2,4-oxadiazole], for which the IC50 at HDAC8 turned out to be 1800 nM. Consider `FC(F)(F)c1nc(-c2ccc(N3CCCCC3c3cccnc3)nc2)no1` (racemic) [Example 157, 3-(6-(2-(pyridin-3-yl)piperidin-1-yl)pyridin-3-yl)-5-(trifluoromethyl)-1,2,4-oxadiazole], for which the IC50 on HDAC8 stood at 3300 nM. Still for that read-out and setting: with `CCOC(=O)N1CCN(c2ccc(-c3noc(C(F)(F)F)n3)cn2)C(c2ccccc2)C1` (racemic) [Example 159, ethyl 3-phenyl-4-(5-(5-(trifluoromethyl)-1,2,4-oxadiazol-3-yl)pyridin-2-yl)piperazine-1-carboxylate] the figure was 4000 nM; with `FC(F)(F)c1nc(-c2ccc(CNCC3CN(Cc4ccccc4)CCO3)nc2)no1` (racemic) [Example 453, 1-(4-benzylmorpholin-2-yl)-N-({5-[5-(trifluoromethyl)-1,2,4-oxadiazol-3-yl]pyridin-2-yl}methyl)methanamine], 1900 nM; with `FC(F)(F)c1nc(-c2ccc(CNCC3CN(c4ccccc4)CCO3)nc2)no1` (racemic) [Example 454, 1-(4-phenylmorpholin-2-yl)-N-({5-[5-(trifluoromethyl)-1,2,4-oxadiazol-3-yl]pyridin-2-yl}methyl)methanamine], 1700 nM.

With `Cc1noc([C@H]2CCCCN2c2ccc(-c3noc(C(F)(F)F)n3)cn2)n1` [Example 138, (R)-3-methyl-5-(1-(5-(5-(trifluoromethyl)-1,2,4-oxadiazol-3-yl)pyridin-2-yl)piperidin-2-yl)-1,2,4-oxadiazole], the IC50 at HDAC8 amounted to 1200 nM. Take `FC(F)(F)c1nc(-c2ccc(N3CCOC[C@H]3c3ccccc3)nc2)no1` [Example 144, (R)-3-phenyl-4-(5-(5-(trifluoromethyl)-1,2,4-oxadiazol-3-yl)pyridin-2-yl)morpholine]: the IC50 at HDAC8 stood at 2700 nM. On to `Cc1cc(=O)n2c(n1)CN(c1ccc(-c3noc(C(F)(F)F)n3)cn1)CC2` [Example 158, 2-methyl-8-(5-(5-(trifluoromethyl)-1,2,4-oxadiazol-3-yl)pyridin-2-yl)-6,7,8,9-tetrahydro-4H-pyrazino[1,2-a]pyrimidin-4-one], for which the IC50 on HDAC8 is 750 nM. Take `O=C1CCc2ccc(F)cc2N1Cc1ccc(-c2noc(C(F)(F)F)n2)cc1` [Example 318, 7-fluoro-1-{4-[5-(trifluoromethyl)-1,2,4-oxadiazol-3-yl]benzyl}-3,4-dihydroquinolin-2(1H)-one]: the IC50 on HDAC8 came to 1800 nM. As for `FC(F)(F)c1nc(-c2ccc(CNc3cc[nH]n3)nc2)no1` [Example 432, N-({5-[5-(trifluoromethyl)-1,2,4-oxadiazol-3-yl]pyridin-2-yl}methyl)-1H-pyrazol-3-amine], the IC50 on HDAC8 is 1300 nM. Same read-out and setting: with `O=C(c1cccc(NCc2ccc(-c3noc(C(F)(F)F)n3)cn2)c1)N1CCCC1` [Example 439, 3-(pyrrolidin-1-ylcarbonyl)-N-({5-[5-(trifluoromethyl)-1,2,4-oxadiazol-3-yl]pyridin-2-yl}methyl)aniline] the figure was 1400 nM; with `O=C(Nc1ccccc1)c1cccc(NCc2ccc(-c3noc(C(F)(F)F)n3)cn2)c1` [Example 440, N-phenyl-3-[({5-[5-(trifluoromethyl)-1,2,4-oxadiazol-3-yl]pyridin-2-yl}methyl)amino]benzamide], 280 nM; with `O=C(NCc1ccccc1)c1ccccc1NCc1ccc(-c2noc(C(F)(F)F)n2)cn1` [Example 448, N-benzyl-2-[({5-[5-(trifluoromethyl)-1,2,4-oxadiazol-3-yl]pyridin-2-yl}methyl)amino]benzamide], 530 nM. `CC(=O)N1CCC(CNCc2ccc(-c3noc(C(F)(F)F)n3)cn2)CC1` [Example 455, 1-(1-acetylpiperidin-4-yl)-N-({5-[5-(trifluoromethyl)-1,2,4-oxadiazol-3-yl]pyridin-2-yl}methyl)methanamine]: the IC50 on HDAC8 was found to be 3800 nM. Regarding `O=C1CCc2cc(C(F)(F)F)ccc2N1Cc1ccc(-c2noc(C(F)(F)F)n2)cn1` [Example 464, 6-(trifluoromethyl)-1-({5-[5-(trifluoromethyl)-1,2,4-oxadiazol-3-yl]pyridin-2-yl}methyl)-3,4-dihydroquinolin-2(1H)-one], the half-maximal inhibitory concentration (IC50) at HDAC1 was 300 nM.

Consider `Cc1nc2cc(F)ccc2n1Cc1ccc(-c2noc(C(F)(F)F)n2)cn1` [Example 466, 5-fluoro-2-methyl-1-({5-[5-(trifluoromethyl)-1,2,4-oxadiazol-3-yl]pyridin-2-yl}methyl)-1H-benzimidazole], for which the IC50 on HDAC1 was 840 nM. Still for that read-out and setting: the same measure for `O=c1cnc2ccccc2n1Cc1ccc(-c2noc(C(F)(F)F)n2)cn1` [Example 467, 1-({5-[5-(trifluoromethyl)-1,2,4-oxadiazol-3-yl]pyridin-2-yl}methyl)quinoxalin-2(1H)-one]: 170 nM.
